How the values were obtained:
[1] = tested on: Chinese sprangletop; assay: Test Example 3: herbicidal effect by foliage application, Wagner pot (Table 18, symbol D); assay type: in vivo, chinese sprangletop (Leptochloa chinensis); details: amount of applied herbicide 320 g/ha
In short: (§1)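 Plants were sown in alluvial soil held under 0.1–0.5 cm standing water and grown 14 days in a greenhouse at 25–30 °C. An emulsifiable formulation, water-diluted to the set dose, was then sprayed onto the foliage, and effects were scored three weeks later using previously defined criteria.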

[2] = tested on: barnyard grass; assay: Test Example 3: herbicidal effect by foliage application, Wagner pot (Table 18, symbol H); assay type: in vivo, barnyard grass (Echinochloa crus-galli); details: amount of applied herbicide 320 g/ha
In short: as §1

[3] = tested on: lambsquarters; assay: Test Example 5: herbicidal effect by foliage application, plastic box (Table 20, symbol O); assay type: in vivo, lambsquarters (Chenopodium album); details: foliage application, 320 g/ha, evaluated three weeks after application
In short: (§2)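 Plants sown in sterilized diluvial soil and grown 14 days in a greenhouse at 25° C to 30° C, then sprayed on the foliage with the compound's emulsion diluted in water to a predetermined herbicide amount. Injury to weeds and crops scored three weeks after application on a visual rating scale.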

[4] = tested on: persian speedwell; assay: Test Example 4: herbicidal effect by soil treatment (Table 19, symbol R); assay type: in vivo, Persian speedwell (Veronica persica); details: amount of applied herbicide 320 g/ha
In short: (§3)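 Three weeks of greenhouse growth at 25° C. to 30° C. followed a uniform surface spray of water-diluted emulsion at a predetermined herbicide amount. Seeds had been sown beforehand under about 1.5 cm of sterilized diluvial soil. Grading followed criteria set out in an earlier test.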

[5] = tested on: late watergrass; assay: Test Example 1: herbicidal activity, application before weed generation under submerged conditions (Table 16, symbol A); assay type: in vivo, late watergrass (Echinochloa oryzicola); details: 320 g/ha applied herbicide
In short: (§4)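 Submerged Wagner pots (alluvial soil, 4 cm water) sown with weed seeds and planted with 2.5-leaf rice seedlings; emulsifiable concentrate diluted in water applied to water surface on sowing day. Held in greenhouse at 25-30 °C; injury scored 0-5 by herbicidal rate after three weeks.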

[6] = tested on: redroot pigweed; assay: Test Example 5: herbicidal effect by foliage application, plastic box (Table 20, symbol N); assay type: in vivo, redroot pigweed (Amaranthus retroflexus); details: foliage application, 320 g/ha, evaluated three weeks after application
In short: as §2

[7] = tested on: chickweed; assay: Test Example 5: herbicidal effect by foliage application, plastic box (Table 20, symbol P); assay type: in vivo, common chickweed (Stellaria media); details: foliage application, 320 g/ha, evaluated three weeks after application
In short: as §2

[8] = tested on: wild oat; assay: Test Example 4: herbicidal effect by soil treatment (Table 19, symbol I); assay type: in vivo, wild oat (Avena fatua); details: amount of applied herbicide 320 g/ha
In short: as §3

[9] = tested on: green foxtail; assay: Test Example 5: herbicidal effect by foliage application, plastic box (Table 20, symbol G); assay type: in vivo, green foxtail (Setaria viridis); details: foliage application, 320 g/ha, evaluated three weeks after application
In short: as §2

[10] = tested on: windgrass; assay: Test Example 5: herbicidal effect by foliage application, plastic box (Table 20, symbol L); assay type: in vivo, windgrass (Apera spica-venti); details: foliage application, 320 g/ha, evaluated three weeks after application
In short: as §2

[11] = tested on: barnyard grass; assay: Test Example 5: herbicidal effect by foliage application, plastic box (Table 20, symbol H); assay type: in vivo, barnyard grass (Echinochloa crus-galli); details: foliage application, 320 g/ha, evaluated three weeks after application
In short: as §2

[12] = tested on: Italian ryegrass; assay: Test Example 4: herbicidal effect by soil treatment (Table 19, symbol K); assay type: in vivo, Italian ryegrass (Lolium multiflorum); details: amount of applied herbicide 320 g/ha
In short: as §3

[13] = tested on: Italian ryegrass; assay: Test Example 5: herbicidal effect by foliage application, plastic box (Table 20, symbol K); assay type: in vivo, Italian ryegrass (Lolium multiflorum); details: foliage application, 320 g/ha, evaluated three weeks after application
In short: as §2

[14] = tested on: southern crabgrass; assay: Test Example 5: herbicidal effect by foliage application, plastic box (Table 20, symbol F); assay type: in vivo, southern crabgrass (Digitaria ciliaris); details: foliage application, 320 g/ha, evaluated three weeks after application
In short: as §2

[15] = tested on: velvetleaf; assay: Test Example 4: herbicidal effect by soil treatment (Table 19, symbol M); assay type: in vivo, velvetleaf (Abutilon theophrasti); details: amount of applied herbicide 320 g/ha
In short: as §3

[16] = tested on: lambsquarters; assay: Test Example 4: herbicidal effect by soil treatment (Table 19, symbol O); assay type: in vivo, lambsquarters (Chenopodium album); details: amount of applied herbicide 320 g/ha
In short: as §3

[17] = tested on: chickweed; assay: Test Example 4: herbicidal effect by soil treatment (Table 19, symbol P); assay type: in vivo, common chickweed (Stellaria media); details: amount of applied herbicide 320 g/ha
In short: as §3

[18] = tested on: wild oat; assay: Test Example 5: herbicidal effect by foliage application, plastic box (Table 20, symbol I); assay type: in vivo, wild oat (Avena fatua); details: foliage application, 320 g/ha, evaluated three weeks after application
In short: as §2

[19] = tested on: Japanese bulrush; assay: Test Example 1: herbicidal activity, application before weed generation under submerged conditions (Table 16, symbol B); assay type: in vivo, Japanese bulrush (Schoenoplectus juncoides); details: 320 g/ha applied herbicide
In short: as §4

[20] = tested on: windgrass; assay: Test Example 4: herbicidal effect by soil treatment (Table 19, symbol L); assay type: in vivo, windgrass (Apera spica-venti); details: amount of applied herbicide 320 g/ha
In short: as §3

[21] = tested on: rice flat sedge; assay: Test Example 3: herbicidal effect by foliage application, Wagner pot (Table 18, symbol E); assay type: in vivo, rice flat sedge (Cyperus iria); details: amount of applied herbicide 320 g/ha
In short: as §1

[22] = tested on: southern crabgrass; assay: Test Example 4: herbicidal effect by soil treatment (Table 19, symbol F); assay type: in vivo, southern crabgrass (Digitaria ciliaris); details: amount of applied herbicide 320 g/ha
In short: as §3

[23] = tested on: velvetleaf; assay: Test Example 5: herbicidal effect by foliage application, plastic box (Table 20, symbol M); assay type: in vivo, velvetleaf (Abutilon theophrasti); details: foliage application, 320 g/ha, evaluated three weeks after application
In short: as §2

[24] = tested on: redroot pigweed; assay: Test Example 4: herbicidal effect by soil treatment (Table 19, symbol N); assay type: in vivo, redroot pigweed (Amaranthus retroflexus); details: amount of applied herbicide 320 g/ha
In short: as §3

[25] = tested on: blackgrass; assay: Test Example 5: herbicidal effect by foliage application, plastic box (Table 20, symbol J); assay type: in vivo, blackgrass (Alopecurus myosuroides); details: foliage application, 320 g/ha, evaluated three weeks after application
In short: as §2

[26] = tested on: barnyard grass; assay: Test Example 4: herbicidal effect by soil treatment (Table 19, symbol H); assay type: in vivo, barnyard grass (Echinochloa crus-galli); details: amount of applied herbicide 320 g/ha
In short: as §3

[27] = tested on: persian speedwell; assay: Test Example 5: herbicidal effect by foliage application, plastic box (Table 20, symbol R); assay type: in vivo, Persian speedwell (Veronica persica); details: foliage application, 320 g/ha, evaluated three weeks after application
In short: as §2

[28] = tested on: oval-leafed pondweed; assay: Test Example 1: herbicidal activity, application before weed generation under submerged conditions (Table 16, symbol C); assay type: in vivo, oval-leafed pondweed (Monochoria vaginalis); details: 320 g/ha applied herbicide
In short: as §4

[29] = tested on: green foxtail; assay: Test Example 4: herbicidal effect by soil treatment (Table 19, symbol G); assay type: in vivo, green foxtail (Setaria viridis); details: amount of applied herbicide 320 g/ha
In short: as §3

[30] = tested on: blackgrass; assay: Test Example 4: herbicidal effect by soil treatment (Table 19, symbol J); assay type: in vivo, blackgrass (Alopecurus myosuroides); details: amount of applied herbicide 320 g/ha
In short: as §3

COc1cc(F)ccc1-c1sc2ccc(NS(C)(=O)=O)cc2c1-c1c(O)c(C)nn(C)c1=O [2-183]
herbicidal effect on D: Chinese sprangletop [1]: 3 (Herbicidal rate of 40% or more and less than 70%)
herbicidal effect on H: barnyard grass [2]: 4 (Herbicidal rate of 70% or more and less than 90%)
herbicidal effect on O: lambsquarters (criteria 0-5) [3]: 3 (Herbicidal rate of 40% or more and less than 70%)
R: persian speedwell, herbicidal effect rating [4]: 3 (Herbicidal rate of 40% or more and less than 70%)
Herbicidal effect on A: late watergrass (grade 0-5) [5]: 2 (Herbicidal rate of 20% or more and less than 40%)
herbicidal effect on N: redroot pigweed (criteria 0-5) [6]: 1 (Herbicidal rate of 5% or more and less than 20%)
herbicidal effect on P: chickweed (criteria 0-5) [7]: 4 (Herbicidal rate of 70% or more and less than 90%)
I: wild oat, herbicidal effect rating [8]: 0 (Herbicidal rate of 5% or less (almost no effect))
herbicidal effect on G: green foxtail (criteria 0-5) [9]: 0 (Herbicidal rate of 5% or less (almost no effect))
herbicidal effect on L: windgrass (criteria 0-5) [10]: 3 (Herbicidal rate of 40% or more and less than 70%)
herbicidal effect on H: barnyard grass (criteria 0-5) [11]: 0 (Herbicidal rate of 5% or less (almost no effect))
K: Italian ryegrass, herbicidal effect rating [12]: 0 (Herbicidal rate of 5% or less (almost no effect))
herbicidal effect on K: Italian ryegrass (criteria 0-5) [13]: 0 (Herbicidal rate of 5% or less (almost no effect))
herbicidal effect on F: southern crabgrass (criteria 0-5) [14]: 0 (Herbicidal rate of 5% or less (almost no effect))
M: velvetleaf, herbicidal effect rating [15]: 0 (Herbicidal rate of 5% or less (almost no effect))
O: lambsquarters, herbicidal effect rating [16]: 0 (Herbicidal rate of 5% or less (almost no effect))
P: chickweed, herbicidal effect rating [17]: 3 (Herbicidal rate of 40% or more and less than 70%)
herbicidal effect on I: wild oat (criteria 0-5) [18]: 0 (Herbicidal rate of 5% or less (almost no effect))
Herbicidal effect on B: Japanese bulrush (grade 0-5) [19]: 0 (Herbicidal rate of 5% or less (almost no effect))
L: windgrass, herbicidal effect rating [20]: 0 (Herbicidal rate of 5% or less (almost no effect))
herbicidal effect on E: rice flat sedge [21]: 0 (Herbicidal rate of 5% or less (almost no effect))
F: southern crabgrass, herbicidal effect rating [22]: 0 (Herbicidal rate of 5% or less (almost no effect))
herbicidal effect on M: velvetleaf (criteria 0-5) [23]: 1 (Herbicidal rate of 5% or more and less than 20%)
N: redroot pigweed, herbicidal effect rating [24]: 0 (Herbicidal rate of 5% or less (almost no effect))
herbicidal effect on J: blackgrass (criteria 0-5) [25]: 4 (Herbicidal rate of 70% or more and less than 90%)
H: barnyard grass, herbicidal effect rating [26]: 0 (Herbicidal rate of 5% or less (almost no effect))
herbicidal effect on R: persian speedwell (criteria 0-5) [27]: 4 (Herbicidal rate of 70% or more and less than 90%)
Herbicidal effect on C: oval-leafed pondweed (grade 0-5) [28]: 0 (Herbicidal rate of 5% or less (almost no effect))
G: green foxtail, herbicidal effect rating [29]: 0 (Herbicidal rate of 5% or less (almost no effect))
J: blackgrass, herbicidal effect rating [30]: 0 (Herbicidal rate of 5% or less (almost no effect))
